Patent US20230002736A1, “ENDODERM DIFFERENTIATION FROM PLURIPOTENT STEM CELL LINES” (priority 2019, published 2023)

Legend:
iPSC lines = format: cell-based
Experimental: Induction of Definitive Endoderm (days 1-7). iPSCs were plated on 6-, 12-, or 96-well Matrigel-coated plates at different densities for differentiation in iPSC media containing 10 μM Y-27632 and 2 μM doxycycline. For example, typical plating density in a single well of a 6-well plate was 500,000 cells or 20,000 cells per well for 96-well plates. The differentiation process consisted of one week of RPMI media supplemented with Gem21 NeuroPlex without insulin at 1× (supplied at 50×, Gemini Bio-Products West Sacramento, Calif., catalog #400-962, or supplemented with Gibco B27 without insulin at 1×), Glutagro at 1× (Corning, Manassas, Va., catalog #25-015-CI, non-essential amino acids at 1× (Gibco, catalog #11-140-050), sodium butyrate (0.5 mM, Sigma Aldrich, catalog #B5887) and recombinant human Activin A (100 ng/mL, Peprotech, Rocky Hill, N.J., catalog #120-14E) for 7 days. On day 1, 2% KnockOut Serum Replacement (KSR; Gibco Catalog #10828028), CHIR-99021 (10 ng/mL, Selleckchem catalog #S2924), PI-103 (10 ng/mL,Selleckchem catalog #S1038), recombinant human BMP4 (10 ng/mL, Peprotech catalog #120-05ET) and FGF2 (20 ng/mL, Peprotech catalog #100-18B) were added to the media. On day 2, 1% KSR, PI-103 (10 ng/mL) and BMP4 (10 ng/mL) and FGF2 (20 ng/mL) and on day 3, 0.2% KSR and PI-103 (10 ng/mL) were added to the media. Doxycycline hyclate (Acros Organics catalog #446061000) was added throughout definitive endoderm induction starting on day 0 (passage day) at various concentrations, as described herein, with a standard concentration being 2 μM. These steps can be performed at normal room oxygen at about 20% or at low oxygen between 4 and 6%.

iPS cells = experiment: Growth of iPS cells in the presence of doxycycline (dose response); format: cell-based, human; settings: FIG. 7B
Experimental: The media conditions to maintain human iPSCs have all been previously described (40). For passaging the cells Accutase (StemCell Technologies, Vancouver, BC) was used for 5 minutes at 37° C. and then stopped with iPSC media containing 10 μM Y-27632 (Selleckchem, Houston, Tex.) (41). The dissociated IPSCs were seeded on new plates with media containing Y-27632, and after 24 hours replaced with media alone. iPSC media was changed daily.
We also did a complete dose-response curve on the growth of iPS cells in the presence of doxycycline up to 30 μg/mL, with toxicity observed beginning at the 10 μg/mL level (FIG. 7B). Beyond effects on iPS cells, we further confirmed the ability of doxycycline to support the induction of iPSCs to endoderm. For this we performed immunohistochemical staining for markers of endoderm, including CXCR4, SOX17, FOXA2, and HNF16 (FIG. 2A and 2B). […] More importantly, the ML1 protocol allowed induction of complete monolayers of endoderm from virtually any iPSC. Compared to many of the other protocols that we tested for poorly differentiating iPS cell lines(6, 8), we could actually differentiate most lines using the ML1 protocol, but only a fraction of them using the other protocols. […]

SMILES: C[C@H]1c2cccc(O)c2C(=O)C2=C(O)[C@]3(O)C(=O)C(C(N)=O)=C(O)[C@@H](N(C)C)[C@@H]3[C@@H](O)[C@@H]21 [doxycycline]
- concentration giving total cell death (iPSC lines; by the third day of induction): > 10000 ng/mL
- concentration tolerated by the cells (iPSC lines; endoderm induction): up to 10 μg/mL
- titration of doxycycline, outcome in words (iPS cells): an optimal level of doxycycline and a toxic level
- concentration at which toxicity begins (iPS cells; dose-response up to 30 μg/mL): 10000 ng/mL
